Source: BigSolDB 2.1

O=C(O)c1cccc(O)c1
solubility (mole fraction)
Settings	278.15 K	283.15 K	288.15 K	293.15 K	298.15 K	303.15 K	308.15 K	313.15 K	318.15 K	323.15 K
in acetone	0.101	0.107	0.111	0.116	0.122	0.128	0.134	0.142	0.151	0.159
in acetonitrile	0.00646	0.00759	0.0103	0.0116	0.0132	0.0155	0.017	0.0199	0.0228	0.0262
in ethanol	0.0936	0.0968	0.101	0.106	0.112	0.116	0.121	0.127	0.134	0.147
in ethyl acetate	0.0377	0.041	0.0441	0.0486	0.0534	0.0565	0.0607	0.0682	0.0742	0.0764
in ethylene glycol	0.0804	0.0829	0.0847	0.0883	0.0959	0.102	0.109	0.116	0.124	0.136
in isopropanol	0.0984	0.104	0.109	0.114	0.121	0.127	0.134	0.14	0.148	0.155
in isopropyl acetate	0.0305	0.0337	0.0365	0.0383	0.043	0.0465	0.0507	0.0552	0.059	0.0618
in methanol	0.0815	0.0856	0.0895	0.0943	0.0995	0.105	0.11	0.117	0.124	0.13
in methyl acetate	0.0388	0.0435	0.048	0.0502	0.0549	0.0577	0.0631	0.0691	0.0764	0.0808
in n-butanol	0.0772	0.0831	0.0857	0.0919	0.0957	0.102	0.109	0.115	0.12	0.125
in n-butyl acetate	0.0361	0.0397	0.043	0.0459	0.0486	0.0526	0.0564	0.0611	0.0661	0.0693
in n-pentanol	0.0774	0.0815	0.0852	0.0902	0.0951	0.101	0.106	0.113	0.118	0.125
in n-propanol	0.0827	0.0878	0.0949	0.0975	0.101	0.108	0.114	0.121	0.128	0.133
in n-propyl acetate	0.0379	0.0434	0.0449	0.047	0.0513	0.0569	0.061	0.0651	0.0711	0.0769
